Measurements: patent US12559504B2, “Benzotriazole derivative” (UBE CORPORATION, priority 2019, dated 2026)

How the values were obtained:
[1] = target: T1, GST fusion human Keap1 (amino acid residue: 325-624) protein (Homo sapiens, UniProt Q14145); assay: Keap1-Nrf2 binding inhibition test (fluorescence polarization); details: compound concentration of 100 nM; read-out: inhibition rate
T1 construct: GST fusion human Keap1 (amino acid residue: 325-624) protein; purchased Protein tech Ag0779
Method in brief: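 Fluorescence polarization with FITC-labelled Nrf2 peptide (FITC-Ahx-LDEETGEFL-NH2) and GST-human Keap1 (325-624) in 20 mM Tris pH 7.5, 150 mM NaCl, 0.05% Tween 20, 5 mM DTT, BSA; 30 min at room temperature, ex 482/em 530 nm. Percent inhibition at 100 nM compound, Keap1-free wells = 100%.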

[2] = test system: NQO1; assay: NQO1 enzyme induction test (in vitro) in Hepa1c1c7 cells; assay type: cell-based; details: Mus musculus, Hepa-1c1c7, 48 h, concentration to elevate the NQO1 activity by 1.5 times, about 48 hours, read-out: EC150
Method in brief: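 Mouse Hepa1c1c7 cells treated about 48 h with compound (0.1% DMSO final), then lysed. NQO1 activity read as MTT reduction at 540 nm with menadione substrate, 5 min at room temperature, and corrected for cell number by CellTiter-Glo. EC150 is the concentration raising NQO1 activity 1.5-fold.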

[3] = test system: NQO1; assay: NQO1 expression induction test in mouse kidney (single administration); assay type: in vivo; details: Mus musculus, po, 6 h, BALB/c mouse kidney, 6 hours after administration, ratio to control group
Method in brief: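 Female BALB/c mice received a single oral dose of compound in 0.5% methylcellulose, with untreated mice as controls. Six hours later, left-kidney NQO1 mRNA was measured by SYBR real-time RT-PCR normalised to GAPDH. Induction was expressed as the ratio of mean treated to mean control expression.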

[4] = Metabolism test using human liver microsome fractions; assay type: in vitro ADME; details: human liver microsomes, test compound 10 μmol/L, NADPH and UDP-glucuronic acid, 37° C.
Method in brief: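 Human or monkey liver microsomes (1 mg protein) with NADPH-regenerating system plus UDP-glucuronic acid/UGT mix, 37 °C; compound at 10 μmol/L final. Samples at 0–30 min quenched in acetonitrile, UV-HPLC; elimination rate (pmol/min/mg-P) from linear slope of residual amount over time.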

T1 sequence (Q14145 325-624): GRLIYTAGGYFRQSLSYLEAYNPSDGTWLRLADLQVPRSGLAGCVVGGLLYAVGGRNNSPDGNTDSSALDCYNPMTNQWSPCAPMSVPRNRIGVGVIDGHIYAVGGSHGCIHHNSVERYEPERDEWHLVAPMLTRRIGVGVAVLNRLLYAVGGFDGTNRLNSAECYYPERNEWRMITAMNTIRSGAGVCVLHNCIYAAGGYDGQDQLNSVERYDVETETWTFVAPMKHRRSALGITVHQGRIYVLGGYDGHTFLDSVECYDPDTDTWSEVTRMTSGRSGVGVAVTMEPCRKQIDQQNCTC

Structure (SMILES) | inhibition at 0.1 µM [1] [%] | EC (1.5-fold NQO1 activity) [2] [µM] | fold induction at 30 mg/kg ([3]; Dose 30 mg/kg) | Human metabolic rate [4] | fold induction at 20 mg/kg [3]
Cc1ccc(C(c2ccc3c(nnn3C)c2C)C(C)(C)C(=O)O)cc1CN1CCOc2cc3cccnc3cc2C1 (stereo not drawn) [Example 63-(b), 3-(3-((2,3-dihydro-[1,4]oxazepino[7,6-g]quinolin-4 (5H)-yl)methyl)-4-methylphenyl)-3-(1,4-dimethyl-1H-benzo[d][1,2,3]triazol-5-yl)-2,2-dimethylpropanoic Acid] | ≥ 50 | 0.005 to 0.05 | 3 to 6 | C (150≤metabolic rate<200 pmol/min/mg protein) | 
CC[C@@H]1CN(Cc2cc(C(c3ccc4c(nnn4C)c3C)C(C)(C)C(=O)O)ccc2C)Cc2cc3c(cnn3C)cc2O1 (stereo partly drawn) [Example 65-(b), 3-(1,4-dimethyl-1H-benzo[d][1,2,3]triazol-5-yl)-3-(3-(((R)-6-ethyl-1-methyl-1,6,7,9-tetrahydro-8H-[1,4]oxazepino[7,6-f]indazol-8-yl)methyl)-4-methylphenyl)-2,2-dimethylpropanoic Acid] | ≥ 50 | 0.0005 to 0.005 |  | D (200≤metabolic rate<250 pmol/min/me protein) | 3 to 6
CC[C@@H]1CN(Cc2cc(C(c3ccc4c(nnn4C)c3C)C(C)(C)C(=O)O)ccc2C)Cc2cc3nn(C)cc3cc2O1 (stereo partly drawn) [Example 66-(b), 3-(1,4-dimethyl-1H-benzo[d][1,2,3]triazol-5-yl)-3-(3-(((R)-6-ethyl-2-methyl-2,6,7,9-tetrahydro-8H-[1,4]oxazepino[7,6-f]indazol-8-yl)methyl)-4-methylphenyl)-2,2-dimethylpropanoic Acid] | ≥ 50 | 0.0005 to 0.005 |  | E (metabolic rate≥250 pmol/min/mg protein) | > 6
CC[C@@H]1CN(Cc2cc(C(c3ccc4c(nnn4C)c3C)C(C)(C)C(=O)O)ccc2C)Cc2cc3c(Cl)cccc3cc2O1 (stereo partly drawn) [Example 68-(b), 3-(3-(((R)-7-chloro-2-ethyl-2,3-dihydronaphtho[2,3-f][1,4]oxazepin-4 (5H)-yl)methyl)-4-methylphenyl)-3-(1,4-dimethyl-1H-benzo[d][1,2,3]triazol-5-yl)-2,2-dimethylpropanoic Acid] | ≥ 50 | 0.005 to 0.05 |  | A (metabolic rate<100 pmol/min/mg protein) | 3 to 6
CC[C@@H]1CN(Cc2cc(C(c3ccc4c(nnn4C)c3C)C(C)(C)C(=O)O)ccc2C)Cc2cc3nccc(Cl)c3cc2O1 (stereo partly drawn) [Example 69, 3-(3-(((R)-10-chloro-2-ethyl-2,3-dihydro-[1,4]oxazepino[7,6-g]quinolin-4 (5H)-yl)methyl)-4-methylphenyl)-3-(1,4-dimethyl-1H-benzo[d][1,2, 3]triazol-5-yl)-2,2-dimethylpropanoic Acid] | ≥ 50 | < 0.0005 |  | D (200≤metabolic rate<250 pmol/min/me protein) | 3 to 6
CC[C@@H]1CN(Cc2cc(C(c3ccc4c(nnn4C)c3C)C(C)(C)C(=O)O)ccc2C)Cc2cc3nccc(OC)c3cc2O1 (stereo partly drawn) [Example 70-(b), 3-(1,4-dimethyl-1H-benzo[d][1,2,3]triazol-5-yl)-3-(3-(((R)-2-ethyl-10-methoxy-2,3-dihydro-[1,4]oxazepino[7,6-g]quinolin-4(5H)-yl)methyl)-4-methylphenyl)-2,2-dimethylpropanoic Acid] | ≥ 50 | 0.0005 to 0.005 |  | E (metabolic rate≥250 pmol/min/mg protein) | > 6
CC[C@@H]1CN(Cc2cc(C(c3ccc4c(nnn4C)c3C)C(C)(C)C(=O)O)ccc2C)Cc2cc3nccc(C)c3cc2O1 (stereo partly drawn) [Example 71-(b), 3-(1,4-dimethyl-1H-benzo[d][1,2,3]triazol-5-yl)-3-(3-(((R)-2-ethyl-10-methyl-2,3-dihydro-[1,4]oxazepino[7,6-g]quinolin-4 (5H)-yl)methyl)-4-methylphenyl)-2,2-dimethylpropanoic Acid] | ≥ 50 | 0.0005 to 0.005 |  | D (200≤metabolic rate<250 pmol/min/me protein) | > 6
CC[C@@H]1CN(Cc2cc(C(c3ccc4c(nnn4C)c3C)C(C)(C)C(=O)O)ccc2C)Cc2cc3ccsc3cc2O1 (stereo partly drawn) [Example 72-(b), 3-(1,4-dimethyl-1H-benzo[d][1,2,3]triazol-5-yl)-3-(3-(((R)-2-ethyl-2,3-dihydrothieno[2′,3′:4,5]benzo[1,2-f][1,4]oxazepin-4(5H)-yl)methyl)-4-methylphenyl)-2,2-dimethylpropanoic Acid] | ≥ 50 | 0.005 to 0.05 |  | A (metabolic rate<100 pmol/min/mg protein) | ≤ 3
CC[C@@H]1CN(Cc2cc(C(c3ccc4c(nnn4C)c3C)C(C)(C)C(=O)O)ccc2C)Cc2cc3c(cc2O1)SCC3 (stereo partly drawn) [Example 73-(b), 3-(1,4-dimethyl-1H-benzo[d][1,2,3]triazol-5-yl)-3-(3-(((R)-2-ethyl-2,3,7,8-tetrahydrothieno[2′,3′:4,5]benzo[1,2-f][1,4]oxazepin-4(5H)-yl)methyl)-4-methylphenyl)-2,2-dimethylpropanoic Acid] | ≥ 50 | 0.005 to 0.05 |  | C (150≤metabolic rate<200 pmol/min/mg protein) | > 6
CC[C@@H]1CN(Cc2cc(C(c3ccc4c(nnn4C)c3C)C(C)(C)C(=O)O)ccc2C)Cc2cc3c(cc2O1)S(=O)(=O)CC3 (stereo partly drawn) [Example 74-(b), 3-(1,4-dimethyl-1H-benzo[d][1,2,3]triazol-5-yl)-3-(3-(((R)-2-ethyl-9,9-dioxide-2,3,7,8-tetrahydrothieno[2′,3′:4,5]benzo[1,2-f][1,4]oxazepin-4(5H)-yl)methyl)-4-methylphenyl)-2,2-dimethylpropanoic Acid] | ≥ 50 | 0.0005 to 0.005 |  | B (100≤metabolic rate<150 pmol/min/mg protein) | 3 to 6
Cc1ccc(C(c2ccc3c(nnn3C)c2C)C(C)(C)C(=O)O)cc1CN1Cc2cc3ncccc3cc2O[C@H](C)C1 (stereo partly drawn) [Example 75-(b), 3-(1,4-dimethyl-1H-benzo[d][1,2,3]triazol-5-yl)-2,2-dimethyl-3-(4-methyl-3-(((R)-2-methyl-2,3-dihydro-[1,4]oxazepino[7,6-g]quinolin-4 (5H)-yl)methyl)phenyl) propanoic Acid] | ≥ 50 | 0.0005 to 0.005 |  | E (metabolic rate≥250 pmol/min/mg protein) | > 6
Cc1ccc(C(c2ccc3c(nnn3C)c2C)C(C)(C)C(=O)O)cc1CN1Cc2cc3ncccc3cc2OC2(CC2)C1 (stereo not drawn) [Example 76-(b), 3-(3-((3′H-spiro[cyclopropane-1,2′-[1,4]oxazepino[7,6-g]quinoline]-4′ (5′H)-yl)methyl)-4-methylphenyl)-3-(1,4-dimethyl-1H-benzo[d][1,2,3]triazol-5-yl)-2,2-dimethylpropanoic Acid] | ≥ 50 | 0.0005 to 0.005 |  | B (100≤metabolic rate<150 pmol/min/mg protein) | > 6
CC[C@@H]1CN(Cc2cccc(C(c3ccc4c(nnn4C)c3C)C(C)(C)C(=O)O)c2)Cc2cc3ncccc3cc2O1 (stereo partly drawn) [Example 79-(b), 3-(1,4-dimethyl-1H-benzo[d][1,2,3]triazol-5-yl)-3-(3-(((R)-2-ethyl-2,3-dihydro-[1,4]oxazepino[7,6-g]quinolin-4(5H)-yl)methyl)phenyl)-2,2-dimethylpropanoic Acid] | ≥ 50 | 0.005 to 0.05 |  | E (metabolic rate≥250 pmol/min/mg protein) | 3 to 6
CC[C@@H]1CN(Cc2cc(C(c3ccc4c(nnn4C)c3C)C(C)(C)C(=O)O)ccc2Cl)Cc2cc3ncccc3cc2O1 (stereo partly drawn) [Example 80-(b), 3-(4-chloro-3-(((R)-2-ethyl-2,3-dihydro-[1,4]oxazepino[7,6-g]quinolin-4 (5H)-yl)methyl)phenyl)-3-(1,4-dimethyl-1H-benzo[d][1,2, 3]triazol-5-yl)-2,2-dimethylpropanoic Acid] | ≥ 50 | 0.005 to 0.05 |  | D (200≤metabolic rate<250 pmol/min/me protein) | > 6
CC[C@@H]1CN(Cc2cc(C(c3ccc4c(nnn4C)c3C)C(C)(C)C(=O)O)ccc2OC)Cc2cc3ncccc3cc2O1 (stereo partly drawn) [Example 81-(b), 3-(1,4-dimethyl-1H-benzo[d][1,2,3]triazol-5-yl)-3-(3-(((R)-2-ethyl-2,3-dihydro-[1,4]oxazepino[7,6-g]quinolin-4 (5H)-yl)methyl)-4-methoxyphenyl)-2,2-dimethylpropanoic Acid] | ≥ 50 | 0.005 to 0.05 |  | A (metabolic rate<100 pmol/min/mg protein) | 3 to 6
